In patent publication US10667517B2, “2-(Het)aryl-substituted fused heterocycle derivatives as pesticides” (BAYER CROPSCIENCE AKTIENGESELLSCHSAFT, priority 2015, dated 2020):

How the values were obtained:
Spodoptera frugiperda = Spodoptera frugiperda - spray test; type: in vivo; settings: armyworm caterpillars on maize leaf discs, after 7 days
Description: Spodoptera frugiperda—Spray Test
(§1) • Solvent: 78.0 parts by weight of acetone • 1.5 parts by weight of dimethylformamide • Emulsifier: alkylaryl polyglycol ether
(§2) To produce a suitable active compound preparation, 1 part by weight of active compound is dissolved with the stated parts by weight of solvent and made up with water containing an emulsifier concentration of 1000 ppm until the desired concentration is attained. To produce further test concentrations, the preparation is diluted with emulsifier-containing water.
Leaf discs of maize (Zea mays) are sprayed with an active compound preparation of the desired concentration and, after drying, populated with caterpillars of the armyworm (Spodoptera frugiperda).
After 7 days, the efficacy in % is determined. 100% means that all the caterpillars have been killed; 0% means that no caterpillars have been killed.

[1] = log P (neutral), HPLC on reversed-phase column (C 18), LC-MS neutral range; type: physicochemical; settings: pH 7.8, ammonium hydrogencarbonate/acetonitrile; for chromatographic logP: reversed-phase HPLC column (C 18), pH 7.8, HPLC reversed-phase C 18, 55° C.; for log P (neutral): HPLC reversed-phase C 18, 55° C.
Description: Temperature: 55° C. […] Called log P (neutral) in the table.

Phaedon cochleariae = Phaedon cochleariae - spray test; type: in vivo; settings: mustard beetle larvae on Chinese cabbage leaf discs, after 7 days; for pest or weed control at 500 g/ha / efficacy: application rate 500 g/ha
Description: Phaedon cochleariae—Spray Test
as §1, §2
After 7 days, the efficacy in % is determined. 100% means that all the beetle larvae have been killed; 0% means that no beetle larvae have been killed.

Myzus persicae = Myzus persicae - spray test; type: in vivo; settings: all stages of green peach aphid on Chinese cabbage leaf discs, after 5-6 days
Description: Myzus persicae—Spray Test
• Solvent: 78 parts by weight of acetone • 1.5 parts by weight of dimethylformamide • Emulsifier: alkylaryl polyglycol ether
as §2
Discs of Chinese cabbage leaves (Brassica pekinensis) infested by all stages of the green peach aphid (Myzus persicae) are sprayed with an active compound preparation of the desired concentration.
After 5-6 days, the efficacy in % is determined. 100% means that all the aphids have been killed; 0% means that no aphids have been killed.

Musca domestica = Musca domestica test; type: in vivo; settings: application rate 100 ppm; adult houseflies, sponge with sugar solution; after 2 days
Description: Musca domestica Test • Solvent: dimethyl sulphoxide To produce a suitable active compound preparation, 10 mg of active compound are mixed with 0.5 ml of dimethyl sulphoxide, and the concentrate is diluted with water to the desired concentration. Vessels containing a sponge treated with sugar solution and the active compound preparation of the desired concentration are populated with 10 adult houseflies (Musca domestica). After 2 days, the kill in % is determined. 100% means that all of the flies have been killed; 0% means that none of the flies have been killed.

Lucilia cuprina = Lucilia cuprina test; type: in vivo; settings: application rate 100 ppm; L1 larvae in minced horsemeat; after 2 days
Description: Lucilia cuprina Test • Solvent: dimethyl sulphoxide To produce a suitable active compound preparation, 10 mg of active compound are mixed with 0.5 ml of dimethyl sulphoxide, and the concentrate is diluted with water to the desired concentration. About 20 L1 larvae of the Australian sheep blowfly (Lucilia cuprina) are transferred into a test vessel containing minced horsemeat and the active compound preparation of the desired concentration. After 2 days, the kill in % is determined. 100% means that all the larvae have been killed; 0% means that no larvae have been killed.

Ctenocephalides felis [2] = experiment: Ctenocephalides felis - in vitro contact tests with adult cat fleas; type: in vivo; settings: application rate 5 μg/cm^2 (500 g/ha); adult cat fleas in coated tubes; after 48 h; dead or moribund
Description: Ctenocephalides felis—In Vitro Contact Tests with Adult Cat Fleas
For the coating of the test tubes, 9 mg of active compound are first dissolved in 1 ml of acetone p.a. and then diluted to the desired concentration with acetone p.a. 250 μl of the solution are distributed homogeneously on the inner walls and the base of a 25 ml test tube by turning and rocking on an orbital shaker (rocking rotation at 30 rpm for 2 h). With 900 ppm active compound solution and internal surface 44.7 cm^2, given homogeneous distribution, an area-based dose of 5 μg/cm^2 is achieved.
After the solvent has evaporated off, the tubes are populated with 5-10 adult cat fleas (Ctenocephalides felis), sealed with a perforated plastic lid and incubated in a horizontal position at room temperature and ambient humidity. After 48 h, efficacy is determined. To this end, the test tubes are stood upright and the fleas are knocked to the base of the tube. Fleas which remain motionless at the base or move in an uncoordinated manner are considered to be dead or moribund.
100% efficacy means that all the fleas were dead or moribund. 0% efficacy means that no fleas were harmed.

Ctenocephalides felis [3] = experiment: Ctenocephalides felis - oral test; type: in vivo; settings: application rate 100 ppm in citrated cattle blood; adult cat fleas; after 2 days
Description: Ctenocephalides felis—Oral Test • Solvent: dimethyl sulphoxide To produce a suitable active compound preparation, 10 mg of active compound are mixed with 0.5 ml of dimethyl sulphoxide. Dilution with citrated cattle blood gives the desired concentration. About 20 unfed adult cat fleas (Ctenocephalides felis) are placed into a chamber which is closed at the top and bottom with gauze. A metal cylinder whose bottom end is closed with parafilm is placed onto the chamber. The cylinder contains the blood/active compound preparation, which can be imbibed by the fleas through the parafilm membrane. After 2 days, the kill in % is determined. 100% means that all of the fleas have been killed; 0% means that none of the fleas have been killed.

[4] = log P (acidic), HPLC on reversed-phase column (C 18), LC-MS acidic range; type: physicochemical; settings: HPLC reversed-phase C 18, 55° C., pH 2.7, 0.1% formic acid/acetonitrile; for chromatographic logP: reversed-phase HPLC column (C 18)
Text: Called log P (HCOOH) in the table.

[5] = Phaedon cochleariae, foliar, 168 h, read-out: efficacy

Row | Structure (SMILES) | efficacy (Spodoptera frugiperda; application rate 500 g/ha) [%] | efficacy (Myzus persicae; application rate 500 g/ha) [%] | log P (neutral) [1] | efficacy (Phaedon cochleariae) [%] | other results
1 | CCS(=O)(=O)c1ccc(-n2cc(C(F)(F)F)cn2)nc1-c1nc2cc(C(F)(F)F)ccc2n1C [Example I-1, 2-{3-(Ethylsulphonyl)-6-[4-(trifluoromethyl)-1H-pyrazol-1-yl]pyridin-2-yl}-1-methyl-5-(trifluoromethyl)-1H-benzimidazole] | 100 | – | – | – | chromatographic logP [1]: 4.16; pest or weed control at 500 g/ha (Phaedon cochleariae; [5]): 100%
2 | CCS(=O)(=O)c1ccc(N)nc1-c1nc2cc(C(F)(F)F)ccc2n1C [Example I-3, 5-(Ethylsulphonyl)-6-[1-methyl-5-(trifluoromethyl)-1H-benzimidazol-2-yl]pyridin-2-amine] | – | 100 | – | – | chromatographic logP [1]: 2.18; pest or weed control at 500 g/ha (Phaedon cochleariae; [5]): 100%
3 | CCS(=O)(=O)c1ccc(-n2cc(C(F)(F)F)cn2)nc1-c1nc2cc(C(F)(F)F)cnc2n1C [Example I-4, 2-{3-(Ethylsulphonyl)-6-[4-(trifluoromethyl)-1H-pyrazol-1-yl]pyridin-2-yl}-3-methyl-6-(trifluoromethyl)-3H-imidazo[4,5-b]pyridine] | 100 | – | – | – | efficacy (kill) (Musca domestica): 80%; efficacy (kill) (Lucilia cuprina): 100%; chromatographic logP [1]: 4.04; pest or weed control at 100 g/ha (Phaedon cochleariae; Phaedon cochleariae, foliar, 168 h, application rate 100 g/ha, read-out: efficacy): 83%
4 | CCS(=O)(=O)c1ccc(NC(C)=O)nc1-c1nc2cc(C(F)(F)F)cnc2n1C [Example I-5, N-{5-(Ethylsulphonyl)-6-[3-methyl-6-(trifluoromethyl)-3H-imidazo[4,5-b]pyridin-2-yl]pyridin-2-yl}acetamide] | – | 90 | – | – | efficacy (Spodoptera frugiperda; application rate 100 g/ha): 100%; chromatographic logP [1]: 2.3; pest or weed control at 500 g/ha (Phaedon cochleariae; [5]): 100%
5 | CCS(=O)(=O)c1ccc(NC(C)=O)nc1-c1nc2cc3c(cc2n1C)OC(F)(F)O3 [Example I-7, N-[6-(2,2-Difluoro-7-methyl-[1,3]dioxolo[4,5-f]benzimidazol-6-yl)-5-ethylsulphonyl-2-pyridyl]acetamide] | 83 | – | – | – | chromatographic logP [1]: 2.42; pest or weed control at 500 g/ha (Phaedon cochleariae; [5]): 100%
6 | CCS(=O)(=O)c1ccc(-n2ccc(C(F)(F)F)n2)nc1-c1nc2cc(C(F)(F)F)ccc2n1C [Example I-9] | 100 | – | 4.21 | – | efficacy (kill) (Lucilia cuprina): 100%; efficacy (Myzus persicae; application rate 100 g/ha): 90%
7 | CCS(=O)(=O)c1ccc(NC(=O)C2CC2)nc1-c1nc2cc(C(F)(F)F)ccc2n1C [Example I-10] | 100 | – | 2.92 | 100 | efficacy (kill) (Lucilia cuprina): 95%; efficacy (Ctenocephalides felis [2]): 100%; efficacy (kill) (Ctenocephalides felis [3]): 100%
8 | CC[S+]([O-])c1ccc(-n2cc(C(F)(F)F)cn2)nc1-c1nc2cc(C(F)(F)F)cnc2n1C (centres unmarked) [Example I-12] | 100 | – | 4.23 | – | –
9 | CCS(=O)(=O)c1ccc(-n2ccc(C(F)(F)F)n2)nc1-c1nc2cc(C(F)(F)F)cnc2n1C [Example I-13] | 100 | – | – | 100 | efficacy (kill) (Musca domestica): 80%; efficacy (kill) (Lucilia cuprina): 100%
10 | CCS(=O)(=O)c1ccc(-n2cc(Cl)cn2)nc1-c1nc2cc(C(F)(F)F)cnc2n1C [Example I-14] | 100 | – | 3.9 | 100 | efficacy (kill) (Lucilia cuprina): 100%
11 | CCS(=O)(=O)c1ccc(NC(=O)C2CC2)nc1-c1nc2cc(C(F)(F)F)cnc2n1C [Example I-16] | 100 | 100 | 2.76 | 100 | –
12 | CCS(=O)(=O)c1ccc(-n2cc(Cl)cn2)nc1-c1cn2cnc(C(F)(F)F)cc2n1 [Example I-17, 2-[6-(4-Chloro-1H-pyrazol-1-yl)-3-(ethylsulphonyl)pyridin-2-yl]-7-(trifluoromethyl)imidazo[1,2-c]pyrimidine] | 100 | – | – | – | chromatographic logP [1]: 3.46; pest or weed control at 500 g/ha (Phaedon cochleariae; [5]): 100%
13 | CCS(=O)(=O)c1ccc(NC(=O)CSC)nc1-c1nc2cc(C(F)(F)F)cnc2n1C [Example I-20] | – | 90 | 2.79 | 100 | –
14 | CCS(=O)(=O)c1ccc(-n2nccn2)nc1-c1nc2cc(C(F)(F)F)cnc2n1C [Example I-23] | 100 | 90 | 2.66 | 100 | –
15 | CCS(=O)(=O)c1ccc(-n2cc(F)cn2)nc1-c1nc2cc(C(F)(F)F)cnc2n1C [Example I-24] | 100 | 90 | 3.55 | 100 | –
16 | CCS(=O)(=O)c1ccc(NC(=O)C(C)CSC)nc1-c1nc2cc(C(F)(F)F)cnc2n1C (centres unmarked) [Example I-25] | – | 90 | – | 100 | –
17 | CCS(=O)(=O)c1ccc(-n2ccc(C(F)(F)F)n2)nc1-c1cn2cnc(C(F)(F)F)cc2n1 [Example I-29] | 100 | – | – | 100 | –
18 | CCS(=O)(=O)c1ccc(-n2cc(F)cn2)nc1-c1cn2cnc(C(F)(F)F)cc2n1 [Example I-30] | – | – | – | – | log P (acidic) [4]: 3.13
19 | CCS(=O)(=O)c1ccc(N)nc1-c1cn2cnc(C(F)(F)F)cc2n1 [Example I-31] | 100 | 90 | 1.59 | 100 | –
20 | CCS(=O)(=O)c1ccc(NC(C)=O)nc1-c1cn2cnc(C(F)(F)F)cc2n1 [Example I-32] | 80 | 90 | 1.99 | 100 | –
21 | CCS(=O)(=O)c1ccc(C(=O)NC)nc1-c1cn2cnc(C(F)(F)F)cc2n1 [Example I-38, 5-(Ethylsulphonyl)-N-methyl-6-[7-(trifluoromethyl)imidazo[1,2-c]pyrimidin-2-yl]pyridine-2-carboxamide] | – | – | – | – | chromatographic logP [4]: 1.95
22 | Fc1ccc(F)c(-c2cn3cc(C(F)(F)F)ncc3n2)n1 [IX-6, 2-(3,6-Difluoropyridin-2-yl)-6-(trifluoromethyl)imidazo[1,2-a]pyrazine] | – | – | – | – | chromatographic logP [4]: 2.05
